# Reference: patent US20050014681A1, “Medicinal compositions for nasal absorption” (priority 2001, published 2005)
# Columns and labels:
# in vivo = details: male, SD (Crj: CD), rat, plasma
# Method: (§1) An anti-rabbit IgG goat serum was then added, and the mixture was allowed to stand for 1 hour at 4° C. The resulting sample was centrifuged and the radioactivity (gamma-ray) of the precipitate was measured by a gamma counter.
# Male SD rats, aged 7 to 9 weeks and weighing about 250 g (Crj: CD, Charles River Japan Inc.,), were kept in a metal cage with a day/night cycle of 12 hours while maintaining the temperature at 22±5° C. and the humidity at 30 to 70%. The rats were allowed to feed freely on solid feed and tap water and were fasted for 24 hours prior to the test (3 animals per group).
# […] The blood was collected into a tube containing anticoagulant and enzyme inhibitor at 0, 5, 10, 15, 20, 30, 60, and 90 minutes after administration and was centrifuged to obtain plasma. […] For subcutaneous administration, the sample solution for subcutaneous administration (about 15 μg/mL) was subcutaneously administered in the back of the rats using a syringe at a dosage of 1 mL/kg.
# [1] = Absorbability of powder preparation for nasal administration using dogs (RIA); details: beagle, dog, in vivo, 50 ug/kg
# Method: as §1
# As a control, one additive-free sample of the composition for nasal administration was prepared.
# [2] = Absorbability of powder preparation for nasal administration using cynomolgus monkeys, Test-1 (RIA); details: cynomolgus monkey, in vivo, sc, 13 ug/kg
# Method: as §1
# Each additive was added to the pharmaceutical composition in amounts of 0.5%, 1.0%, 10% and 50% with respect to the total weight of the preparation.
# The bioavailability was determined by comparing the AUC after nasal administration with the AUC after subcutaneous administration.
# [3] = background statement; cited from earlier work
# blood glucose level = assay: Blood glucose level decreasing effect of nasally administered incretin hormones in glucose-loaded rats; format: in vivo; details: nasal powder about 100 μg polypeptide, 15 min after dosing, 10 min after 0.5 g/kg i.v. glucose, control 196
# Method: As for the composition containing incretin hormones, the blood glucose level fell as compared with the control group. Moreover, also the incretin hormones, the blood glucose level fell when composition containing 5% corn starch is added compared with when 5% corn starch is not added.
molecule,measurement,setting,value
"CC[C@H](C)[C@H](NC(=O)[C@H](Cc1ccccc1)NC(=O)[C@H](CCC(=O)O)NC(=O)[C@H](CCCCN)NC(=O)[C@H](C)NC(=O)[C@H](C)NC(=O)[C@H](CCC(N)=O)NC(=O)CNC(=O)[C@H](CCC(=O)O)NC(=O)[C@H](CC(C)C)NC(=O)[C@H](Cc1ccc(O)cc1)NC(=O)[C@H](CO)NC(=O)[C@H](CO)NC(=O)[C@@H](NC(=O)[C@H](CC(=O)O)NC(=O)[C@H](CO)NC(=O)[C@@H](NC(=O)[C@H](Cc1ccccc1)NC(=O)[C@@H](NC(=O)CNC(=O)[C@H](CCC(=O)O)NC(=O)[C@H](C)NC(=O)[C@@H](N)Cc1c[nH]cn1)[C@@H](C)O)[C@@H](C)O)C(C)C)C(=O)N[C@@H](C)C(=O)N[C@@H](Cc1c[nH]c2ccccc12)C(=O)N[C@@H](CC(C)C)C(=O)N[C@H](C(=O)N[C@@H](CCCCN)C(=O)NCC(=O)N[C@@H](CCCNC(=N)N)C(N)=O)C(C)C [GLP-1(7-36)NH2, GLP-1 (7-36)NH2]",AUC,"in vivo; inhaled or intranasal, 1 ug/kg",2.47 ± 1.44 ng·h/mL
same,Cmax,"in vivo; inhaled or intranasal, 1 ug/kg",4.7 ± 3.28 ng/mL
same,AUC,"in vivo; sc, 15 ug/kg",3.82 ± 0.58 ng·h/mL
same,Cmax,"in vivo; sc, 15 ug/kg",6.68 ± 0.86 ng/mL
same,AUC(0-inf),[1],5.15 ± 5.13 ng·h/mL
same,Cmax,[1],20.4 ± 3.48 ng/mL
same,AUC(0-inf),[2],3.23 ± 0.5 ng·h/mL
same,Cmax,[2],6.37 ± 2.54 ng/mL
casein,isoelectric point (pI),[3],about 4.6
"[Val^8]-GLP-1 (7-37) (HVEGTFTSDVSSYLEGQAAKEFIAWLVKGRG; Glucagon-like peptide 1(7-37); UniProt P01275 98-128, looked up, variant A8V) [[Val^8]-GLP-1(7-37)]",blood glucose level (Mean),blood glucose level; composition: 5% corn starch,147 mg/dL
same,blood glucose level (Mean),blood glucose level; composition: No additive,168 mg/dL
Exendin-4,blood glucose level (Mean),blood glucose level; composition: 5% corn starch,151 mg/dL
same,blood glucose level (Mean),blood glucose level; composition: No additive,166 mg/dL
"[Lys^26, ε-NH{γ-Glu(N-α-palmitoyl)}]-GLP-1 (7-37)",blood glucose level (Mean),blood glucose level; composition: 5% corn starch,154 mg/dL
same,blood glucose level (Mean),blood glucose level; composition: No additive,184 mg/dL
GLP-1 (7-37) [GLP-1(7-37)],blood glucose level (Mean),blood glucose level; composition: 5% corn starch,146 mg/dL
same,blood glucose level (Mean),blood glucose level; composition: No additive,170 mg/dL
